# Values joined by “and” are separate entries in the source; they are usually repeats but may differ in a detail not shown here. Equal entries are not always repeated.
# What was measured:
# [1] = test system: MDA-1986 (human head and neck squamous cell carcinoma) cells; test: Anti-proliferative activity (Resazurin Blue, 72 hours); type: cell-based
# Method: (§3) MDA-1986 (human head and neck squamous cell carcinoma), 4T1.2-neu (murine breast cancer cells), and A2058 (human melanoma) cells were maintained in Dulbecco's Modified Eagle Medium (DMEM, Corning, Manassas, Va.) with 4.5 g/L glucose, 4.5 g/L L-glutamine, and 10% fetal bovine serum in a humidified incubator at 37° C. and 5% CO2. Cells were seeded into 96-well plates (3,000 cells/well in 90 μL media) and allowed to attach overnight. […] Resazurin Blue (Acros Organics, Geel, Belgium) in PBS was added to each well (5-μM final concentration; 10-μL addition) and incubated at 37° C. for 4 hours. Fluorescence (λex 550 nm, λem 605 nm) was quantified with a SpectraMax Gemini XS plate-reader (Molecular Devices, Sunnyvale, Calif.). The relative growth of cells incubated with each compound concentration was normalized to vehicle-treated controls (100% proliferation). Data from at least three separate experiments performed in duplicate was analyzed using non-linear regression (GraphPad Prism 5.0) to generate IC50 values.
# [2] = test system: A2058 (human melanoma) cells; test: as above; type: cell-based; settings: mean ± S.E.M., cisplatin basis
# Method: as §3
# [3] = test system: 4T1.2-neu (murine breast cancer cells); test: as above; type: cell-based; settings: mean ± S.E.M., cisplatin basis
# Method: as §3
# [4] = test system: white blood cell DNA; test: Pt-DNA adduct quantitation in white blood cell DNA; type: in vivo, rat; settings: for Pt-DNA adduct Tmax / Pt-DNA adduct AUC: cisplatin i.v. 10 mg/kg, HA-Lys-Pt s.c. 10 mg/kg cisplatin basis; for Pt-DNA adduct AUC: 10 mg/kg
# Method: (§1) Whole blood was centrifuged (1500×g, 5 min., 4° C., no brake). Top layer (plasma) and middle layer (white blood cells) were transferred to new tubes. Plasma was frozen (−20° C.) until analysis. […] The white blood cell pellet was washed twice with cold PBS and re-suspended in 9 mL of white blood cell buffer (10-mM Tris, pH 7.4, 2.3% NaCl, 2-mM EDTA), and 900 μL of 1.1-M NH4HCO3, 900 μL of 10% SDS, and 75 μL of 2% Proteinase K were added and incubated at 42° C. overnight. Then, 3.3 mL of 5-M NaCl was added, samples shaken vigorously, and centrifuged twice (3200×g, 5 min, 4° C.), each time discarding the pellet. DNA was pelleted with 20 mL of ice-cold 100% ethanol and centrifuged (3200×g, 5 min, 4° C.); the DNA pellet was washed twice with 75% ethanol, re-suspended in water, and quantitated. DNA was digested in 1% HNO3 (800 μL total volume) overnight at 70° C. DNA samples were diluted 1:10 in 1% HNO3 and plasma samples were diluted 1:10,000 in 1% HNO3. Diluted samples were analyzed for Pt content using ICP-MS with a calibration curve from 1-1000 ppt.
# [5] = test system: MDA-1986 head and neck tumors; test: Anticancer efficacy, orthotopic xenograft model of human HNSCC; type: in vivo, mouse; design: key to tumor response, Modified RECIST: PR=Partial Response (>30% reduction); PD=Progressive Disease (>30% tumor growth); SD=Stable Disease (neither PR nor PD criteria met)
# Method: The MDA-1986 cells were prepared in PBS at a concentration of 2×10^7 cells/mL. Female NU/NU mice were anesthetized under 2% isoflurane in O2, and 50 μL of cell solution was injected into the oral sub-mucosa of the mice using a 27-ga needle. All procedures in the animal study were approved by the Institutional Animal Care and Use Committee of the University of Kansas. Tumor growth was monitored twice weekly by measurement with a digital caliper, and the tumor volume was calculated as 0.52×(width)^2×(length). […] The drugs were given weekly for 3 consecutive weeks.
# [6] = test system: spontaneous canine cancers; settings: dogs; cited from earlier work
# [7] = human, in vivo; cited from earlier work
# [8] = Viscosity reduction by excipients (rheometer); type: physicochemical; settings: 37° C.
# Method: The viscosity of 29 kDa HA (60 mg/mL), 33HA-Lys (33 kDa HA with linker, 8 mg/mL on HA basis), and 33HA-Lys-Pt (41.7 mg/mL on HA basis) with increasing concentration of mannitol (0, 0.1, 0.5 and 1 M) were measured using a rheometer at 37° C.
# (§2) The solutions were incubated in the dark for 20 hours using a CLAY ADAMS® Brand Nutator. After 20 hours, the pH of the solutions were adjusted to pH 6.0 using 1N NaOH. A Brookfield DVIII Ultra Programmable Rheometer was used to measure the viscosity of three 500-μL samples of each solution. Measurements were taken for each at three different RPMs, where the torque ranged from 10-100%. Values for viscosity were not recorded until at least 30 seconds after the motor was started, after the torque readings were stabilized.
# as §2, with “to pH 5.0 or 6.0 using” for “to pH 6.0 using”
# [9] = Viscosity reduction by excipients (rheometer); type: physicochemical; settings: sucrose 0.1, 0.5 and 1 M, 37° C.
# [10] = HPLC of small molecular platinum species after storage; type: physicochemical; settings: solution stored at 4° C. for 4 days
# Method: Small molecular platinum species including cisplatin, Pt-monoaqua, and Pt-diaqua were quantified by HPLC. The mobile phase was sodium phosphate solution (10-mM, pH 3.0) at a flow rate of 0.25 mL/min on an Alltech® 250 mm×4.6 mm M/M RP8/cation column thermostated at 25° C. […] The filtrate was immediately injected into the HPLC.
# [11] = Plasma Pt quantitation; settings: cisplatin i.v. 10 mg/kg; HA-Lys-Pt s.c. 10 mg/kg cisplatin basis
# Method: as §1
# [12] = Toxicity of HA-Lys-Pt in healthy Balb/c mice; type: in vivo, mouse
# Method: The toxicity of HA-Lys-Pt was evaluated in healthy Balb/c mice. […] Another group of Balb/c mice was injected subcutaneously with 8.86 (N=2), 13.3 (N=2), 17.7 (N=2), 20 (N=2), 30 (N=2), and 40 mg/kg (N=1) of the 33HA-Lys-Pt. Their body weights and symptoms of toxicities were monitored twice per week for up to 2 months.
# [13] = Transmission electron microscopy, particle diameter; type: physicochemical; settings: TEM
# From the text: FIGS. 4A and 4B show the transmission electron microscopy images of HA-Lys-Pt (75 kD HA) before and after salt treatment for 2 weeks. The average diameters of HA-Lys-Pt particles ranged from 25 to 50 nm. […] Intense darkness results from the high electron density of Pt rich area. […] Reduced clustering of the salt treated nanoparticles may be due to reduced hydrophobicity due to release of Pt and availability of charged chelator groups.
# [14] = test system: head and neck squamous cell carcinoma cells, MDA-1986; test: Cytotoxicity of HA-GluH-Pt (Resazurin blue); type: cell-based, human; settings: 72 hours
# Method: Cell growth inhibition was determined in 96-well plates using head and neck squamous cell carcinoma cells, MDA-1986. […] Plates were seeded with 3,000 cells/well in 90 uL of media (6 replicates/sample). Ten microliters of HA-GluH-Pt conjugate solutions were applied after 24 hours. Resazurin blue in 10 uL of PBS was applied to each well (final concentration 5 uM) after another 72 hours.
# [15] = test system: MDA-1986 cells that overexpress CD44; test: CD44 specificity and cellular uptake of HA-GluH-Pt; type: cell-based, human; settings: 30-μg/mL, 6 h
# Method: CD44 specificity and cellular internalization mechanism of HA-GluH-Pt was investigated using MDA-1986 cells that overexpress CD44. Chlorpromazine was used as an endocytosis inhibitor. Cells were pretreated with 25-μM chlorpromazine or 10-μg/mL anti-CD44 1 h before the addition of 30-μg/mL HA-GluH-Pt (on platinum basis) and subsequent incubation for 6 h. Cells were trypsinized, lysed by sonication and diluted 20 fold prior to ICP-MS analysis.
# [16] = Toxicity of HA-GluH-Pt in mice; type: in vivo, mouse; settings: single s.c. 20, 40, 67 and 100 mg/kg, 2 months
# Method: The toxicity of HA-GluH-Pt was evaluated in blab/C mice. Four blab/C mice were injected subcutaneously with 20, 40, 67 and 100 mg/kg HA-GluH-Pt. The body weights of the animals were checked weekly for 2 months.
compound,measurement,setting,value
"N.N.[Cl][Pt][Cl] [Cisplatin, cisplatin, reference compound]",IC50,"[1]; mean ± S.E.M., cisplatin basis",8.2 ± 0.6 µM
same,IC50,"[1]; mean ± S.E.M., cisplatin basis, listed as cisplatin",~8 µM
same,IC50,[2],6.8 ± 2.7 µM
same,IC50,[2]; listed as cisplatin,~8 µM
same,IC50,[3],9.4 ± 2.5 µM
same,IC50,[3]; listed as cisplatin,~8 µM
same,Pt-DNA adduct Tmax,[4],1 h
same,Pt-DNA adduct AUC,[4],1466 pg Pt×h/μg DNA and 1255 pg Pt×h/μg DNA
same,levels of adduct formation over the time course,"[4]; i.v. 10 mg/kg, 15 minutes to 96 hours",11-16 pg Pt/μg DNA
same,"tumor response, Modified RECIST",[5]; animal #1,PR (PR=Partial Response (>30% reduction))
same,"tumor response, Modified RECIST",[5]; animal #2,PD (PD=Progressive Disease (>30% tumor growth))
same,"tumor response, Modified RECIST",[5]; animal #3,SD
same,"tumor response, Modified RECIST",[5]; animal #4,PR (PR=Partial Response (>30% reduction))
same,"tumor response, Modified RECIST",[5]; animal #5,PD (PD=Progressive Disease (>30% tumor growth))
same,"tumor response, Modified RECIST",[5]; animal #6,PR (PR=Partial Response (>30% reduction))
same,"tumor response, Modified RECIST",[5]; animal #7,PD (PD=Progressive Disease (>30% tumor growth))
same,"tumor response, Modified RECIST",[5]; animal #8,PD (PD=Progressive Disease (>30% tumor growth))
same,rate of partial response (PR),[5]; three weekly injections,37.5%
same,rate of progressive disease (PD),[5]; three weekly injections,50%
same,cure in heterogeneous oral squamous cell carcinomas,[6],7%
N.N.O=C([O-])C1(C(=O)[O-])CCC1.[Pt+2] [carboplatin],patients in whom thrombocytopenia is dose limiting,[7],25%
HA6.4-cis-[Pt(NH3)2(Nα-Acetyl-L-lysine)] [HA6.4-lys-Pt],cell growth inhibition,[1]; highest dose tested (300 μM),< 50%
same,IC50,"[1]; mean ± S.E.M., cisplatin basis",> 500 µM
HA-cis-[Pt(NH3)2(N^α-Acetyl-L-Lysine)] [33HA-Lys-Pt],IC50,"[1]; mean ± S.E.M., cisplatin basis, listed as HA-Lys-Pt 33 kDa",20.7 ± 2.9 µM
same,IC50,"[1]; text b180, listed as HA-Lys-Pt 33 kDa",~40 µM
same,"tumor response, Modified RECIST",[5]; animal #1,PR (PR=Partial Response (>30% reduction))
same,"tumor response, Modified RECIST",[5]; animal #2,PR (PR=Partial Response (>30% reduction))
same,"tumor response, Modified RECIST",[5]; animal #3,SD
same,"tumor response, Modified RECIST",[5]; animal #4,PR (PR=Partial Response (>30% reduction))
same,"tumor response, Modified RECIST",[5]; animal #5,PR (PR=Partial Response (>30% reduction))
same,"tumor response, Modified RECIST",[5]; animal #6,SD
same,"tumor response, Modified RECIST",[5]; animal #7,PR (PR=Partial Response (>30% reduction))
same,"tumor response, Modified RECIST",[5]; animal #8,PR (PR=Partial Response (>30% reduction))
same,rate of partial response (PR),[5]; three weekly injections,75%
same,effect on viscosity,"[8]; mannitol 0.1, 0.5 and 1 M",reduced the viscosity
same,effect on viscosity,"[8]; trehalose 0.1, 0.5 and 1 M",reduced the viscosity
same,effect on viscosity,[9],reduced the viscosity
HA-cis-[Pt(NH3)2(N^α-Acetyl-L-Lysine)] [HA-Lys-Pt],Pt-monoaqua and Pt-diaqua detection,[10],Neither Pt-monoaqua nor Pt-diaqua was detected
same,Pt-DNA adduct Tmax,[4],48 h
same,Pt-DNA adduct AUC,[4],5247 pg Pt×h/μg DNA
same,plasma Pt Cmax,[11],4.1±2.4 μg Pt/mL plasma
same,plasma Pt Tmax,[11],24 h
same,body weight recovery,"[12]; 20 or 30 mg/kg (on cisplatin basis), weight loss began one-week post treatment",returned to pre-dose weight within another two weeks
same,body weight recovery,"[12]; highest dose (40 mg/kg), compared with 20 or 30 mg/kg",one additional week
same,"acute toxic reactions including lethargy, paralysis, and respiratory depression","[12]; single s.c. injection, any dose level",not observed
same,weight loss,[5]; single dose of 20 mg/kg,less than 5%
same,weight loss,"[5]; three weekly doses of 20 mg/kg, after the last injection",more than 20%
same,diameters of nanoparticles,[13]; after salt treatment for 2 weeks,25-50 nm
same,diameters of nanoparticles,[13]; freshly made,25-50 nm
HA-cis-[Pt(NH3)2(Nα-AcetylGluH)] [HA-GluH-Pt],IC50,[14],623 µM
same,cellular uptake in anti-CD44 antibody and chlorpromazine treated cells,[15],did not differ significantly from the non-treated control
same,weight loss,[16],Less than 5%

# From patent publication US20190015518A1, “DRUG DELIVERY COMPOSITIONS AND METHODS” (priority 2016, published 2019)
